Data taken from patent EP0366451A2, “The use of oxidized polyamines, especially NN'-Bis-(3-propionaldehyde)-1-4-diaminobutane (sperminedialdehyde) as immunosuppressive agents” (ORTHO PHARMACEUTICAL CORPORATION, priority 1988, dated 1990).
Entries after “also recorded” stand apart in the source; their conditions may differ. Each block holds one compound with its values, some of them ahead of it.

Legend:
[1] = Preliminary in vitro alkylation studies
splenic T cell = experiment: Concanavalin A-stimulated splenic T cell proliferation ([3H]-thymidine incorporation); assay type: cell-based, Mouse
Method: Splenic cells were treated with various concentrations of SDA or an analogue for 30 min. at 37°C. Cells were washed and cultured in the presence of Concanavalin A for 3 days. [³H] Thymidine 0.1µCi/well was added and cells were harvested after 18-24 hrs.
Mouse spleen cells were cultured for 3 days in flat bottom microtiter relates at 10⁵ cells per well in the presence of […] of Con A. 3H-thymidine (0.1 microcurie/well) was added for the last 4-6 hours of the culture period. Cells were harvested as described above.
For [³H]-thymidine incorporation, drug or vehicle treated bone marrow or spleen cells were plated in RPMI-1640, containing 10% fetal bovine serum, 10 µM β-mercaptoethanol, 25 mM HEPES and 2 mM glutamine. Con-A (4 µg/ml and […]) was used as mitogens for bone marrow and spleen cells. Three days later, [³H]-thymidine (0.2 µCi/well) was added and cells were harvested after 12-18 hrs. L1210/CPA and L1210/0 cells (0.1 - 1 x 10⁵ cells/well were plated in RPMI-1640 containing 10% horse serum. [³H]-thymidine was added after 24 hrs and cells were filtered on GF/B filter paper for scintillation counting.

[2] = target: T1, S-Adenosylmethionine Decarboxylase (AdoMet DC) (Mus musculus, UniProt P0DMN7); experiment: AdoMet DC inhibition in L1210 cell supernatants ([14C]CO2 release); assay type: biochemical, Murine; settings: for inhibition of AdoMet DC (in words): Fig. 9 and Figure 10
T1 construct: endogenous in cells; host or cells: murine leukemic L1210 cells (supernatant)
T1 sequence (P0DMN7 68-334 limits assumed): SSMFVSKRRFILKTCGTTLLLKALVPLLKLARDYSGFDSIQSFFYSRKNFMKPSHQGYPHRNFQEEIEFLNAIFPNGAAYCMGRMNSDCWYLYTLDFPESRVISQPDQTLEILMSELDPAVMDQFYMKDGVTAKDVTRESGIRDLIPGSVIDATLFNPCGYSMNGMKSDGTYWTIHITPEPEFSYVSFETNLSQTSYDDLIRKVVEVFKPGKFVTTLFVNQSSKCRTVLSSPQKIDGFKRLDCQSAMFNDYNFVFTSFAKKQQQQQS
T1 sequence (P0DMN7 1-67 limits assumed): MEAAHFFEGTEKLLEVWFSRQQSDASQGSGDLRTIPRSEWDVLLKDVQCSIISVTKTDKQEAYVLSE
Method: Murine leukemic L1210 cell supernatants were incubated with different concentrations of SDA or butyl dialdehyde, and AdoMet DC activity was estimated by monitoring the release of [¹⁴C] CO₂. Inhibition curves for both drugs were superimposable with IC₅₀ values of 0.12-0.13 x 10⁻³ M.

cytosolic ALDH = experiment: NAD-linked cytosolic ALDH assay, L1210/CPA cells; assay type: biochemical, Murine
Method: (§1) Cultured murine leukemic cells and livers (excised from mice immediately after cervical dislocation) were homogenized in 3 volumes of ice-cold 1.15% KCl and 1 mM EDTA. The homogenate was centrifuged at 100,000 g for 45 min and the resulting supernatant was used to measure cytosolic ALDH activity. For particulate ALDH assay, the pellet (and homogenate for total ALDH) was resuspended in homogenizing buffer and treated with 0.25% Triton X-100 for 30 min at 4°C. The solubilized preparations were centrifuged at 48,000 g for 30 min and the supernatants were drawn off for ALDH determinations.
(§2) ALDH activity was measured by monitoring the reduction of NAD or NADp for 5-6 min at […] at 37°C in DU70 spectrophotometer (Beckman). The assay mixture contained 50 mM potassium phosphate buffer, pH 7.4, 2.0 mM NAD (or NADP) and 1.0 mM EDTA. The reaction was started by adding the substrate (SDA or other aldehyde) to the prewarmed (5 min at 37°C) assay mixture containing enzyme preparation. Pyrazole (0.1 mM) was added particularly for liver enzyme, to inhibit alcohol dehydrogenase. The apparent Km and maximum velocity (Vmax) values were calculated using a Lineweaver-Burk plot based on the estimation of the slope by regression analysis. Enzyme activity was expressed as mU (nmoles/min) per mg of protein. Protein contents were determined by the Bradford method, using bovine serum albumin as the standard.

[3] = test system: NADP-linked cytosolic ALDH; experiment: NADP-linked cytosolic ALDH assay, L1210/CPA cells; assay type: biochemical, Murine; settings: SDA as substrate; read-out: 50% inhibition at
Method: as §1
as §2, with “standard. […]” for “standard.”

[4] = test system: tumor cells and hemopoietic progenitor cells; experiment: Cytotoxicity of ALDH inhibitors ex vivo; assay type: cell-based; settings: at concentrations much lower than needed for complete inhibition of ALDH
From the text: Both disulfiram and acrolein were very toxic to tumor cells and hemopoietic progenitor cells ex vivo at concentrations much lower than that needed for complete inhibition of ALDH. […] Therefore, in subsequent experiments, DEAB was chosen to study the survival of leukemic cells and myeloid progenitor cells after treatment with SDA.

Ornithine decarboxylase = Ornithine decarboxylase (Mus musculus, UniProt P00860); experiment: Ornithine decarboxylase inhibition; assay type: biochemical; settings: Figure 10
Chain of Ornithine decarboxylase (P00860 whole entry): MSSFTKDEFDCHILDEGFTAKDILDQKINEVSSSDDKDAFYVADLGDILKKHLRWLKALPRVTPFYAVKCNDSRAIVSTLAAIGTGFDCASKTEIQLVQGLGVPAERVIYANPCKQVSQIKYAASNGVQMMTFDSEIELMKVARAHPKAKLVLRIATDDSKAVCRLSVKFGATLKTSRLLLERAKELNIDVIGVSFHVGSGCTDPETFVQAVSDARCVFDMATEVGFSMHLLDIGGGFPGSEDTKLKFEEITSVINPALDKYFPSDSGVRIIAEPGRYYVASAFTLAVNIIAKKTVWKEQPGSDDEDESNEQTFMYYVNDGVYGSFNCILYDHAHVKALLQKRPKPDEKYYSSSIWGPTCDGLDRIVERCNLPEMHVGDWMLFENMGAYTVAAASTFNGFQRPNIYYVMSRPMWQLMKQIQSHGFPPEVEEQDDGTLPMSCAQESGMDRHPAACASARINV
From the text: The figure illustrates the comparative profile of the inhibition of key regulatory enzymes of polyamine synthesis by SDA, its analogue, butyl dialdehyde (BDA), difluoromethyl orinithine (DFMO) and methyl glyoxal bis (guanylhydrazone) (MGBG).

[5] = test system: Cytosolic ALDH in mouse liver; experiment: NAD-linked cytosolic ALDH assay, mouse liver; assay type: biochemical; settings: as substrate, mouse liver cytosol
Method: as §1, §2

Structure (SMILES): CC(=O)CCNCCCCNCCC(C)=O [ANALOGUE # 3]
alkylation [1]: nonspecific alkylating agents

Structure (SMILES): C=CC=O [Acrolein]
IC50 (cytosolic ALDH; SDA (1.0 mM) as substrate, pretreated with inhibitor 5 min at 37°C, read-out: Inhibition (IC₅₀)): 2.5 ± 0.63 µM
IC50 [3]: 50 to 100 µM
toxicity to tumor cells and hemopoietic progenitor cells ex vivo [4]: very toxic

Structure (SMILES): CCN(CC)C(=S)SSC(=S)N(CC)CC [Disulfiram]
toxicity to tumor cells and hemopoietic progenitor cells ex vivo [4]: very toxic

Structure (SMILES): CC(C=NNC(=N)N)=NNC(=N)N [MGBG, methyl glyoxal bis (guanylhydrazone), reference compound]
inhibition of AdoMet DC (in words) [2]: inhibited AdoMetDC; also recorded: selectively reduced AdoMet IC activity

Structure (SMILES): c1cn[nH]c1 [Pyrazole]
effect on L1210/CPA cytosolic enzyme (cytosolic ALDH; SDA as the substrate, data not shown): had no effect

More lines, main results first:

alkylation [1]: nonspecific alkylating agents
Structure (SMILES): Nc1ncnc2c1nc(Sc1cc3c(cc1Br)OCO3)n2CCc1ccccc1Cl [ANALOGUE # 4]

IC50 ([2]; Figure 9, inhibition curves superimposable, read-out: IC₅₀ values): 120 to 130 µM
Structure (SMILES): O=CCCCNCCCCNCCCC=O [ANALOGUE # 7, butyl dialdehyde]
potency in proliferation assays compared with SDA (splenic T cell; Fig. 8): less potent than SDA
fold less potent than SDA (splenic T cell; Figure 8): 30 fold
inhibition of AdoMet DC (in words) [2]: selectively inhibited adenosylmethionine decarboxylase

inhibition of ODC (in words) (Ornithine decarboxylase): inhibited ODC with high potency
inhibition of AdoMet DC (in words) [2]: compensatory increase in AdoMetDC
Structure (SMILES): NCCCC(N)(C(=O)O)C(F)F (stereo not drawn) [DFMO, difluoromethyl orinithine, reference compound]

Km ([5]; NAD, ± SEM, 3-4 experiments): 14 ± 2.8 µM
Structure (SMILES): CCC=O [Propionaldehyde]
Km (cytosolic ALDH; as substrate, L1210/CPA cytosol, NAD, ± SEM, 3-4 experiments): 26.5 ± 4.9 µM
Specific (activity of ALDH) (cytosolic ALDH; as substrate, L1210/CPA cytosol, propionaldehyde 1.0 mM): 10.5 ± 3.2 mU/mg Protein
Specific (activity of ALDH) ([5]; propionaldehyde 1.0 mM): 22.5 ± 3.9 mU/mg Protein
